Source: PubChem BioAssay AID1963847 (Molecular Pharmacology Branch, DTP, NCI, 2024)

System: 415267-285-R-J2-PDC complex spheroid viability
Assay: Anticancer human tumor 415267-285-R-J2-PDC patient-derived breast carcinoma cell line growth inhibition [POLQ]
Details: for IC50: curve of first compound; for viability, T/C: stronger effect = lower value
Method in brief: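 PDC + HUVEC + MSC complex spheroids; POLQ inhibitors ± partner drugs; top conc. at/near clinical Cmax, else 10 microM (SN-38 1 microM), half-log dilutions; 37 degrees C, 5% CO2.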
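Also: spheroids exposed to compounds for one week before readout.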
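For viability, T/C in this document: luminescence used as stand-in measure of viable cells; 100% = DMSO vehicle control viability.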

`CC1COCCN1c1cc(C2(O)CC3CCC(C2)O3)c2cnn(-c3ccn[nH]3)c2n1` (configuration not stated) + Nc1ccc(C#CCN(C(=O)Cc2ncc(C(F)(F)F)cc2C(F)(F)F)c2ccc(F)cc2)nn1 showed an IC50 (second compound 0.0316 µM) of under 31.6 nM, an IC50 (second compound 0.1 µM) of under 31.6 nM and an IC50 (second compound 0.316 µM) of under 31.6 nM. The IC50 (second compound 1 µM) was under 31.6 nM, the IC50 (second compound 3.16 µM) was under 31.6 nM and the IC50 (second compound 10 µM) was under 31.6 nM. It also gave a viability, T/C (second compound 0.0316 µM, first compound 0.0316 µM) of 19.2%, a viability, T/C (second compound 0.0316 µM, first compound 0.1 µM) of 6.63% and a viability, T/C (second compound 0.0316 µM, first compound 0.316 µM) of 4.19%. The viability, T/C (second compound 0.0316 µM, first compound 1 µM) was 3.59%, the viability, T/C (second compound 0.0316 µM, first compound 3.16 µM) was 4.18% and the viability, T/C (second compound 0.0316 µM, first compound 10 µM) was 5.72%. For the same compound, the viability, T/C (second compound 0.1 µM, first compound 0.0316 µM) was 22%, the viability, T/C (second compound 0.1 µM, first compound 0.1 µM) was 6.34% and the viability, T/C (second compound 0.1 µM, first compound 0.316 µM) was 5.38%. For the same compound, the viability, T/C (second compound 0.1 µM, first compound 1 µM) was 4.69%, the viability, T/C (second compound 0.1 µM, first compound 3.16 µM) was 3.81% and the viability, T/C (second compound 0.1 µM, first compound 10 µM) was 2.94%. The viability, T/C (second compound 0.316 µM, first compound 0.0316 µM) was 22.7%, the viability, T/C (second compound 0.316 µM, first compound 0.1 µM) was 6.83% and the viability, T/C (second compound 0.316 µM, first compound 0.316 µM) was 4.18%. The viability, T/C (second compound 0.316 µM, first compound 1 µM) was 3.94%, the viability, T/C (second compound 0.316 µM, first compound 3.16 µM) was 3.9% and the viability, T/C (second compound 0.316 µM, first compound 10 µM) was 2.58%. The viability, T/C (second compound 1 µM, first compound 0.0316 µM) was 18.7%, the viability, T/C (second compound 1 µM, first compound 0.1 µM) was 5.19% and the viability, T/C (second compound 1 µM, first compound 0.316 µM) was 4.87%. For the same compound, the viability, T/C (second compound 1 µM, first compound 1 µM) was 3.6%, the viability, T/C (second compound 1 µM, first compound 3.16 µM) was 3.79% and the viability, T/C (second compound 1 µM, first compound 10 µM) was 2.6%. The viability, T/C (second compound 3.16 µM, first compound 0.0316 µM) was 16.6%, the viability, T/C (second compound 3.16 µM, first compound 0.1 µM) was 5.61% and the viability, T/C (second compound 3.16 µM, first compound 0.316 µM) was 4.81%. It also gave a viability, T/C (second compound 3.16 µM, first compound 1 µM) of 3.47%, a viability, T/C (second compound 3.16 µM, first compound 3.16 µM) of 3.8% and a viability, T/C (second compound 3.16 µM, first compound 10 µM) of 3.42%. The viability, T/C (second compound 10 µM, first compound 0.0316 µM) was 16.1%, the viability, T/C (second compound 10 µM, first compound 0.1 µM) was 6.98% and the viability, T/C (second compound 10 µM, first compound 0.316 µM) was 5.96%. The viability, T/C (second compound 10 µM, first compound 1 µM) was 4.12%, the viability, T/C (second compound 10 µM, first compound 3.16 µM) was 3.92% and the viability, T/C (second compound 10 µM, first compound 10 µM) was 3.05%.
